Experimental data as given in patent US12251382B2, “Substituted amino-pyrimidine compound for use in a method for treatment and prevention of multiple sclerosis” (Merck Patent GmbH, priority 2018, dated 2025).
“Also recorded” adds a separate entry of the source. Read-outs that look alike come from different tables or passages of the source.

Settings: for Overall safety and tolerability: single doses 25-500 mg, multiple doses 25-200 mg for 14 days
[1] = Part 1, pooled active, listed as evobrutinib

Protocol: A randomized, double-blind, placebo-controlled trial conducted in healthy volunteers. […] Written informed consent was obtained from all participants.
Following completion of each dose cohort in both parts of the study, a safety monitoring committee (SMC) decided whether protocol-defined dose escalation to the next level was appropriate to a maximum of 500 mg in Part 1, or to the highest safe and tolerated dose or highest dose from Part 1 in Part 2, based on all safety data and other available data (including PK and PD data). […] Other safety data (e.g., hematology parameters) were also taken into consideration for dose escalation decisions as a matter of course.
TEAEs and SAEs were recorded from time of informed consent until study completion. […] Assessment of severity considered the Toxicity Grading Scale for Healthy Adult and Adolescent Volunteers Enrolled in Preventative Vaccine Clinical Trials. Data were summarized using descriptive statistics.

## C=CC(=O)N1CCC(CNc2ncnc(N)c2-c2ccc(Oc3ccccc3)cc2)CC1 [Evobrutinib, 1-(4-(((6-amino-5-(4-phenoxyphenyl)pyrimidin-4-yl)amino)methyl)piperidin-1-yl)prop-2-en-1-one]
Part 1
  Severity of TEAEs: mild (Grade 1) except in one subject in the 200 mg treatment group
Part 1, all evobrutinib doses
  Subjects with contact dermatitis at locations of ECG pads: 5.6%
  Subjects with headache: 5.6%
Part 1, one subject in the 200 mg treatment group
  Dose-limiting TEAE: Grade 4 increased lipase in combination with Grade 3 increased amylase
Part 1, pooled active
  Abdominal pain, subjects: 0 (0.0) n (%)
  Amylase increased, number of TEAEs: [1]
  Amylase increased, subjects: 1 (2.8) n (%)
  Application site pruritus (due to ECG stickers), subjects: 0 (0.0) n (%)
  Back pain, number of TEAEs: [1]
  Back pain, subjects: 1 (2.8) n (%)
  Contact dermatitis, number of TEAEs: [2]
  Contact dermatitis, subjects: 2 (5.6) n (%)
  Dizziness, number of TEAEs: [1]
  Dizziness, subjects: 1 (2.8) n (%)
  Dry eye, number of TEAEs: [1]
  Dry eye, subjects: 1 (2.8) n (%)
  Dry mouth, subjects: 0 (0.0) n (%)
  Dyspepsia, number of TEAEs: [1]
  Dyspepsia, subjects: 1 (2.8) n (%)
  Excoriation, number of TEAEs: [1]
  Excoriation, subjects: 1 (2.8) n (%)
  Headache, number of TEAEs: [3]
  Headache, subjects: 2 (5.6) n (%)
  Lipase increased, number of TEAEs: [1]
  Lipase increased, subjects: 1 (2.8) n (%)
  Multiple injuries, number of TEAEs: [1]
  Multiple injuries, subjects: 1 (2.8) n (%)
  Nasal congestion, number of TEAEs: [1]
  Nasal congestion, subjects: 1 (2.8) n (%)
  Noncardiac chest pain, subjects: 0 (0.0) n (%)
  Odynophagia, number of TEAEs: [1]
  Odynophagia, subjects: 1 (2.8) n (%)
  Overall total TEAEs, subjects: 9 (25.5) n (%)
  Overall total, number of TEAEs: [15]
  Upper respiratory tract infection, subjects: 0 (0.0) n (%)
[1]
  Contact dermatitis, number of TEAEs: two
  Headache, number of TEAEs: three
  Overall total, number of TEAEs: 15
Part 1, single dose 25 mg
  Abdominal pain, subjects: 0 (0.0) n (%)
  Amylase increased, subjects: 0 (0.0) n (%)
  Application site pruritus (due to ECG stickers), subjects: 0 (0.0) n (%)
  Back pain, subjects: 0 (0.0) n (%)
  Contact dermatitis, subjects: 0 (0.0) n (%)
  Dizziness, subjects: 0 (0.0) n (%)
  Dry eye, subjects: 0 (0.0) n (%)
  Dry mouth, subjects: 0 (0.0) n (%)
  Dyspepsia, subjects: 0 (0.0) n (%)
  Excoriation, subjects: 0 (0.0) n (%)
  Headache, subjects: 0 (0.0) n (%)
  Lipase increased, subjects: 0 (0.0) n (%)
  Multiple injuries, subjects: 0 (0.0) n (%)
  Nasal congestion, subjects: 0 (0.0) n (%)
  Noncardiac chest pain, subjects: 0 (0.0) n (%)
  Odynophagia, subjects: 0 (0.0) n (%)
  Overall total TEAEs, subjects: 0 (0.0) n (%)
  Upper respiratory tract infection, subjects: 0 (0.0) n (%)
Part 1, single dose 50 mg
  Abdominal pain, subjects: 0 (0.0) n (%)
  Amylase increased, subjects: 0 (0.0) n (%)
  Application site pruritus (due to ECG stickers), subjects: 0 (0.0) n (%)
  Back pain, number of TEAEs: [1]
  Back pain, subjects: 1 (16.7) n (%)
  Contact dermatitis, number of TEAEs: [2]
  Contact dermatitis, subjects: 2 (33.3) n (%)
  Dizziness, subjects: 0 (0.0) n (%)
  Dry eye, subjects: 0 (0.0) n (%)
  Dry mouth, subjects: 0 (0.0) n (%)
  Dyspepsia, number of TEAEs: [1]
  Dyspepsia, subjects: 1 (16.7) n (%)
  Excoriation, subjects: 0 (0.0) n (%)
  Headache, number of TEAEs: [2]
  Headache, subjects: 1 (16.7) n (%)
  Lipase increased, subjects: 0 (0.0) n (%)
  Multiple injuries, subjects: 0 (0.0) n (%)
  Nasal congestion, subjects: 0 (0.0) n (%)
  Noncardiac chest pain, subjects: 0 (0.0) n (%)
  Odynophagia, subjects: 0 (0.0) n (%)
  Overall total TEAEs, subjects: 3 (50.0) n (%)
  Overall total, number of TEAEs: [6]
  Upper respiratory tract infection, subjects: 0 (0.0) n (%)
Part 1, single dose 100 mg
  Abdominal pain, subjects: 0 (0.0) n (%)
  Amylase increased, subjects: 0 (0.0) n (%)
  Application site pruritus (due to ECG stickers), subjects: 0 (0.0) n (%)
  Back pain, subjects: 0 (0.0) n (%)
  Contact dermatitis, subjects: 0 (0.0) n (%)
  Dizziness, subjects: 0 (0.0) n (%)
  Dry eye, subjects: 0 (0.0) n (%)
  Dry mouth, subjects: 0 (0.0) n (%)
  Dyspepsia, subjects: 0 (0.0) n (%)
  Excoriation, subjects: 0 (0.0) n (%)
  Headache, subjects: 0 (0.0) n (%)
  Lipase increased, subjects: 0 (0.0) n (%)
  Multiple injuries, subjects: 0 (0.0) n (%)
  Nasal congestion, number of TEAEs: [1]
  Nasal congestion, subjects: 1 (16.7) n (%)
  Noncardiac chest pain, subjects: 0 (0.0) n (%)
  Odynophagia, subjects: 0 (0.0) n (%)
  Overall total TEAEs, subjects: 1 (16.7) n (%)
  Overall total, number of TEAEs: [1]
  Upper respiratory tract infection, subjects: 0 (0.0) n (%)
Part 1, single dose 200 mg
  Abdominal pain, subjects: 0 (0.0) n (%)
  Amylase increased, number of TEAEs: [1]
  Amylase increased, subjects: 1 (16.7) n (%)
  Application site pruritus (due to ECG stickers), subjects: 0 (0.0) n (%)
  Back pain, subjects: 0 (0.0) n (%)
  Contact dermatitis, subjects: 0 (0.0) n (%)
  Dizziness, number of TEAEs: [1]
  Dizziness, subjects: 1 (16.7) n (%)
  Dry eye, subjects: 0 (0.0) n (%)
  Dry mouth, subjects: 0 (0.0) n (%)
  Dyspepsia, subjects: 0 (0.0) n (%)
  Excoriation, number of TEAEs: [1]
  Excoriation, subjects: 1 (16.7) n (%)
  Headache, subjects: 0 (0.0) n (%)
  Lipase increased, number of TEAEs: [1]
  Lipase increased, subjects: 1 (16.7) n (%)
  Multiple injuries, subjects: 0 (0.0) n (%)
  Nasal congestion, subjects: 0 (0.0) n (%)
  Noncardiac chest pain, subjects: 0 (0.0) n (%)
  Odynophagia, subjects: 0 (0.0) n (%)
  Overall total TEAEs, subjects: 2 (33.3) n (%)
  Overall total, number of TEAEs: [4]
  Upper respiratory tract infection, subjects: 0 (0.0) n (%)
Part 1, single dose 350 mg
  Abdominal pain, subjects: 0 (0.0) n (%)
  Amylase increased, subjects: 0 (0.0) n (%)
  Application site pruritus (due to ECG stickers), subjects: 0 (0.0) n (%)
  Back pain, subjects: 0 (0.0) n (%)
  Contact dermatitis, subjects: 0 (0.0) n (%)
  Dizziness, subjects: 0 (0.0) n (%)
  Dry eye, subjects: 0 (0.0) n (%)
  Dry mouth, subjects: 0 (0.0) n (%)
  Dyspepsia, subjects: 0 (0.0) n (%)
  Excoriation, subjects: 0 (0.0) n (%)
  Headache, subjects: 0 (0.0) n (%)
  Lipase increased, subjects: 0 (0.0) n (%)
  Multiple injuries, number of TEAEs: [1]
  Multiple injuries, subjects: 1 (16.7) n (%)
  Nasal congestion, subjects: 0 (0.0) n (%)
  Noncardiac chest pain, subjects: 0 (0.0) n (%)
  Odynophagia, subjects: 0 (0.0) n (%)
  Overall total TEAEs, subjects: 1 (16.7) n (%)
  Overall total, number of TEAEs: [1]
  Upper respiratory tract infection, subjects: 0 (0.0) n (%)
Part 1, single dose 500 mg
  Abdominal pain, subjects: 0 (0.0) n (%)
  Amylase increased, subjects: 0 (0.0) n (%)
  Application site pruritus (due to ECG stickers), subjects: 0 (0.0) n (%)
  Back pain, subjects: 0 (0.0) n (%)
  Contact dermatitis, subjects: 0 (0.0) n (%)
  Dizziness, subjects: 0 (0.0) n (%)
  Dry eye, number of TEAEs: [1]
  Dry eye, subjects: 1 (16.7) n (%)
  Dry mouth, subjects: 0 (0.0) n (%)
  Dyspepsia, subjects: 0 (0.0) n (%)
  Excoriation, subjects: 0 (0.0) n (%)
  Headache, number of TEAEs: [2]
  Headache, subjects: 1 (16.7) n (%)
  Lipase increased, subjects: 0 (0.0) n (%)
  Multiple injuries, subjects: 0 (0.0) n (%)
  Nasal congestion, subjects: 0 (0.0) n (%)
  Noncardiac chest pain, subjects: 0 (0.0) n (%)
  Odynophagia, number of TEAEs: [1]
  Odynophagia, subjects: 1 (16.7) n (%)
  Overall total TEAEs, subjects: 2 (33.3) n (%)
  Overall total, number of TEAEs: [3]
  Upper respiratory tract infection, subjects: 0 (0.0) n (%)
Part 1, single dosing, all evobrutinib doses
  Subjects with TEAEs: 25%
Either part of the study
  TEAEs leading to discontinuation; trends in vital signs, ECGs, laboratory values, IgG subclasses: no TEAEs leading to discontinuation and no clinically significant trends in vital signs, ECGs, laboratory values or immunoglobulin G (IgG) subclasses
One subject, 350 mg single ascending dose cohort, 7 days after administration
  SAE of multi-trauma due to an automobile accident, relation to study drug: unrelated to the study drug
Single and multiple dosing (Parts 1 and 2)
  Deaths or serious adverse events (SAEs) related to treatment: no deaths or serious adverse events (SAEs) related to treatment
  Overall safety and tolerability: well tolerated
Listed as evobrutinib
  Overall safety and tolerability: safe and well tolerated and no non-tolerated dose could be defined; also recorded: safe and well tolerated
